Measured values reported in patent publication US7176035B2, “Protein-protein interactions and methods for identifying interacting proteins and the amino acid sequence at the site of interaction” (priority 1999, dated 2007).
Where no end group is shown, it is not given here.

What was measured:
[1] = tested on: 57 kDa protein (α- and β-tubulins); assay: Binding of rod-fixed overlapping hexapeptides of P-gp linker domains to [35S]methionine-labeled total cell lysate, SDS-PAGE; details: for binding affinity to the 57 kDa protein in the overlapping hexapeptide scan: total cell lysate from [35S]methionine labeled CEM or CEM/VLB1.0 cells, bound proteins eluted with SDS, 10% SDS-PAGE; for binding of resynthesized hexapeptide to the 57 kDa protein: total cell lysate from [35S]methionine labeled cells, 24 hour or 48 hour incubation (FIG. 11)
Method: Pre-derivatized plastic rods, active ester and polypropylene trays were purchased from Cambridge Research Biochemicals (Valley Stream, N.Y.). Peptides were synthesized on solid polypropylene rods as previously described (36, 37). Briefly, the F-moc protecting group on the prederivatized polypropylene rods as solid support (arranged in a 96-well formate) was removed by incubation with 20% (v/v) piperidine in dimethylformamide (DMF) for 30 minutes with shaking. Following the deprotection of the β-alanine spacer on the polypropylene rods, Fmoc protected amino acids were dissolved in HOBt/DMF and added to the appropriate wells containing deprotected rods. Coupling of amino acids was allowed to take place for 18 hours at room temperature after which the rods were washed in DMF (1×2 minutes), methanol (4×2 minutes), and DMF (1×2 minutes). The coupling of the second amino acid required the deprotection of the F-moc amino protecting group of the first amino acid and incubation of the rods with the second preactivated F-moc-protected amino acids (pentafluorophenyl derivatives). The reaction was allowed to proceed for 18 hours, and the rods were removed and washed as indicated above. The same steps were repeated for each amino acid coupling until the sixth amino acid was coupled. Following the last coupling step, the F-moc N-terminal protecting group was removed with 20% piperidine/DMF and the free amino group acetylated for 90 minutes in an acetylation cocktail containing acetic anhydride:diisopropylethylamine (DIEA):DMF (50:1:50 v/v/v). The side chain protecting groups of the N-terminal acetylated hexapeptides onto the polypropylene rods were removed by incubation in a cleavage mixture containing trifluoroacetic acid:phenol:ethandithiol (95:2.5:2.5 v/v/v) for 4 hours at room temperature. After the cleavage step the rods were washed with dichloromethane (DCM) and neutralized in 5% (v/v) DIEA/DCM. The deprotected peptide-coupled rods were washed in DCM, methanol and vacuum dried for 18 hours.
Following metabolic labeling of proteins with [^35S] methionine, cells were washed 3 times with phosphate buffered saline (PBS) and resuspended in hypotonic buffer (10 mM KCl, 1.5 mM MgCl2, 10 mM Tris-HCl, pH 7.4) containing protease inhibitors (2 mM PMSF, 3 μg/ml Leupeptin, 4 μg/ml pepstatin A and 1 μg/ml aprotinin) and kept on ice for 30 minutes. […] The amount of protein in the above samples was determined by the method of Lowry (69).
For a binding assay, [^35S] methionine labeled proteins from total cell lysate were mixed with equal volume of 3–6% BSA in phosphate buffered saline (PBS) and incubated with overlapping hexapeptides covalently fixed to polypropylene rods. […] The peptides-fixed rods are now ready for the next round of screening. […]

~41 kDa protein = assay: Resynthesized high affinity hexapeptides incubated with total cell lysate; type: binding; details: total cell lysate from [35S]methionine labeled cells (FIG. 11); level rises with longer incubation
Method: Two high affinity binding sequences ^658RSSLIR^663 (SEQ ID NO: 7) and ^669SVRGSQ^674 (SEQ ID NO: 8) from HP-gp1 linker domain were resynthesized and incubated with total cell lysate from [^35S] methionine metabolically labeled cells following 24 hour or 48 hour incubation times. Bound proteins were eluted from peptide-fixed rods and resolved by 10% SDS-PAGE. The migration of the molecular weight markers is shown to the left of the figure.
For a binding assay, [^35S] methionine labeled proteins from total cell lysate were mixed with equal volume of 3–6% BSA in phosphate buffered saline (PBS) and incubated with overlapping hexapeptides covalently fixed to polypropylene rods. The peptides and total cell lysate were incubated overnight at 4° C. The rods were then removed and washed four times in PBS. The bound proteins were eluted by incubating the peptide-fixed rods in 1×SDS sample buffer for 60 minutes at room temperature with shaking. The peptides-fixed rods, were regenerated by incubation in PBS, containing 2% SDS and 1 mM β-mercaptoethanol at 65° C. in a sonicator for 30 minutes. Following the latter incubation, the rods were washed for five minutes in 65° C. ionized water and two minutes in 65° C. methanol. The peptides-fixed rods are now ready for the next round of screening. […]

SVRGSQ: N-terminal acetylated hexapeptide from the second region of HP-gp1 linker domain, covalently fixed to polypropylene rods (Ac-SVRGSQ; also: attached to polypropylene rods; listed as Homo sapiens)
binding affinity to the 57 kDa protein in the overlapping hexapeptide scan [1]: bound with the highest affinity to the 57 kDa protein | binding of resynthesized hexapeptide to the 57 kDa protein [1]: bound specifically to the 57 kDa protein | binding of resynthesized hexapeptide to a ~41 kDa protein (~41 kDa protein): bound specifically

RSSLIR: N-terminal acetylated hexapeptide from the second region of HP-gp1 linker domain, covalently fixed to polypropylene rods (Ac-RSSLIR; also: attached to polypropylene rods; listed as Homo sapiens)
binding affinity to the 57 kDa protein in the overlapping hexapeptide scan [1]: bound with the highest affinity to the 57 kDa protein | binding of resynthesized hexapeptide to the 57 kDa protein [1]: bound specifically to the 57 kDa protein | binding of resynthesized hexapeptide to a ~41 kDa protein (~41 kDa protein): bound specifically
